Assay results reported in ChEMBL document CHEMBL1201862, “PubChem BioAssay data set” (2004).
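Dose response: 5 concentrations. Exposure: 48 h. Format: 96-well plates. Endpoint: linear interpolation; highest concentration if not reached. The concentration for 50% growth inhibition is given as GI50.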 Active and inactive are the calls of the source. Cut-off read from the data, not from the text of the source: active = GI50 up to about 1.1 µM and inactive = higher.

Assays:
Assay in all cases: NCI tumour cell line growth inhibition, 48 h
MDA-N = tested on: MDA-N
U-251 = tested on: U-251
786-0 = tested on: 786-0
CAKI-1 = tested on: CAKI-1
MOLT-4 = tested on: MOLT-4
NCI-H226 = tested on: NCI-H226
NCI-H522 = tested on: NCI-H522
NCI-H460 = tested on: NCI-H460
K562 = tested on: K562
CCRF-CEM = tested on: CCRF-CEM
RPMI-8226 = tested on: RPMI-8226
M14 = tested on: M14
MCF7 = tested on: MCF7
SF-295 = tested on: SF-295
EKVX = tested on: EKVX
MDA-MB-231 = tested on: MDA-MB-231
HCT-15 = tested on: HCT-15
SW-620 = tested on: SW-620
TK-10 = tested on: TK-10
HL-60 = tested on: HL-60
LOX IMVI = tested on: LOX IMVI
UACC-257 = tested on: UACC-257
HCT-116 = tested on: HCT-116
Hs-578T = tested on: Hs-578T
OVCAR-8 = tested on: OVCAR-8
SN12C = tested on: SN12C
SNB-75 = tested on: SNB-75
HCC 2998 = tested on: HCC 2998
Malme-3M = tested on: Malme-3M
IGROV-1 = tested on: IGROV-1
SNB-19 = tested on: SNB-19
SK-OV-3 = tested on: SK-OV-3
DU-145 = tested on: DU-145
SK-MEL-2 = tested on: SK-MEL-2
SF-539 = tested on: SF-539
COLO 205 = tested on: COLO 205
NCI/ADR-RES = tested on: NCI/ADR-RES
SR = tested on: SR
MDA-MB-435 = tested on: MDA-MB-435
A498 = tested on: A498
KM12 = tested on: KM12
HT-29 = tested on: HT-29
OVCAR-3 = tested on: OVCAR-3
RXF 393 = tested on: RXF 393
OVCAR-5 = tested on: OVCAR-5
HOP-62 = tested on: HOP-62
ACHN = tested on: ACHN
NCI-H23 = tested on: NCI-H23
SK-MEL-5 = tested on: SK-MEL-5
UACC-62 = tested on: UACC-62
SF-268 = tested on: SF-268
UO-31 = tested on: UO-31
SK-MEL-28 = tested on: SK-MEL-28
A549 = tested on: A549
OVCAR-4 = tested on: OVCAR-4
HOP-92 = tested on: HOP-92
PC-3 = tested on: PC-3
T47D = tested on: T47D

Compound: COc1ccc(N(C(=O)NCCO)c2ccccc2)cc1
- GI50 (MDA-N): > 100 µM (inactive)
- GI50 (U-251): > 100 µM (inactive)
- GI50 (786-0): > 100 µM (inactive)
- GI50 (CAKI-1): > 100 µM (inactive)
- GI50 (MOLT-4): > 100 µM (inactive)
- GI50 (NCI-H226): > 100 µM (inactive)
- GI50 (NCI-H522): > 100 µM (inactive)
- GI50 (NCI-H460): > 100 µM (inactive)
- GI50 (K562): > 100 µM (inactive)
- GI50 (CCRF-CEM): > 100 µM (inactive)
- GI50 (RPMI-8226): > 100 µM (inactive)
- GI50 (M14): > 100 µM (inactive)
- GI50 (MCF7): > 100 µM (inactive)
- GI50 (SF-295): > 100 µM (inactive)
- GI50 (EKVX): > 100 µM (inactive)
- GI50 (MDA-MB-231): > 100 µM (inactive)
- GI50 (HCT-15): > 100 µM
- GI50 (SW-620): > 100 µM (inactive)
- GI50 (TK-10): > 100 µM (inactive)
- GI50 (HL-60): > 100 µM (inactive)
- GI50 (LOX IMVI): > 100 µM (inactive)
- GI50 (UACC-257): > 100 µM (inactive)
- GI50 (HCT-116): > 100 µM (inactive)
- GI50 (Hs-578T): > 100 µM (inactive)
- GI50 (OVCAR-8): > 100 µM (inactive)
- GI50 (SN12C): > 100 µM (inactive)
- GI50 (SNB-75): > 100 µM (inactive)
- GI50 (HCC 2998): > 100 µM (inactive)
- GI50 (Malme-3M): > 100 µM (inactive)
- GI50 (IGROV-1): > 100 µM (inactive)
- GI50 (SNB-19): > 100 µM (inactive)
- GI50 (SK-OV-3): > 100 µM (inactive)
- GI50 (DU-145): > 100 µM (inactive)
- GI50 (SK-MEL-2): > 100 µM (inactive)
- GI50 (SF-539): > 100 µM (inactive)
- GI50 (COLO 205): > 100 µM (inactive)
- GI50 (NCI/ADR-RES): > 100 µM (inactive)
- GI50 (SR): > 100 µM (inactive)
- GI50 (MDA-MB-435): > 100 µM (inactive)
- GI50 (A498): > 100 µM (inactive)
- GI50 (KM12): > 100 µM (inactive)
- GI50 (HT-29): > 100 µM (inactive)
- GI50 (OVCAR-3): > 100 µM (inactive)
- GI50 (RXF 393): > 100 µM (inactive)
- GI50 (OVCAR-5): > 100 µM (inactive)
- GI50 (HOP-62): > 100 µM (inactive)
- GI50 (ACHN): > 100 µM (inactive)
- GI50 (NCI-H23): > 100 µM (inactive)
- GI50 (SK-MEL-5): > 100 µM (inactive)
- GI50 (UACC-62): > 100 µM (inactive)
- GI50 (SF-268): > 100 µM (inactive)
- GI50 (UO-31): > 100 µM (inactive)
- GI50 (SK-MEL-28): > 100 µM (inactive)
- GI50 (A549): > 100 µM (inactive)
- GI50 (OVCAR-4): > 100 µM (inactive)
- GI50 (HOP-92): > 100 µM (inactive)
- GI50 (PC-3): > 100 µM (inactive)
- GI50 (T47D): > 100 µM (inactive)
